Measured values reported in the supplement of paper PMC11451515.

Assays:
SEM cells [1] = assay: AUC of viability dose-response curve (% viability x log10 dose units); higher = less sensitive; details: 48 h
In short: (§1)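 Leukemia cells adapted to each medium were seeded in 1536-well plates (500 or 1000 cells/well). They were dosed with library compounds in DMSO at 11 threefold doses, 47 μM to 0.79 nM, for 48 h at 37°C. CellTiter-Glo One luminescence was normalised per plate to DMSO and cell-free wells. Area under the curve was integrated by trapezoidal rule over log10 doses on a four-parameter log-logistic fit; curves exceeding full viability were scaled and curves failing quality control removed.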

NOMO1 [2] = assay: as above; details: 48 h
In short: as §1

P12-Ichikawa [3] = assay: as above; details: 48 h
In short: as §1

SEM cells [4] = assay: cell viability relative to DMSO control; higher = less cytotoxic; details: 48 h
In short: (§2)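 Leukemia cells (NOMO1 or SEM, 500 cells/well; P12-Ichikawa, 1000 cells/well) were seeded in 5 μl in 1536-well plates after at least four passages of adaptation to each medium. They received library compounds in DMSO by pin dosing, 11 threefold points from 47 μM to 0.79 nM. Luminescence with CellTiter-Glo One was read after 48 h at 37°C. Viability is stated per plate relative to DMSO wells, with cell-free wells as background.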

NOMO1 [5] = assay: as above; details: RPMI 5 mM glucose + 10% FBS, 48 h
In short: as §2

P12-Ichikawa [6] = assay: as above; details: 48 h
In short: as §2

Cc1cnc(Nc2ccc(F)cc2Cl)nc1-c1c[nH]c(C(=O)N[C@H](CO)c2cccc(Cl)c2)c1
AUC of viability dose-response curve
Details	NOMO1 [2]	P12-Ichikawa [3]	SEM cells [1]
HPLM + 10% dialyzed FBS	353	389	467
RPMI 5 mM glucose + 10% FBS	335	384	452
RPMI 5 mM glucose + 10% dialyzed FBS	364	411	443

SEM cells [4], HPLM + 10% dialyzed FBS
Details	cell viability [%]
0.000781 µM	109
0.00234 µM	125
0.00702 µM	114
0.0211 µM	137
0.0632 µM	126
0.19 µM	134
0.569 µM	134
1.71 µM	125
5.12 µM	136
15.4 µM	121
46.1 µM	84.9

C/C=C/C(=O)N(CC)c1ccccc1C
AUC of viability dose-response curve
Details	NOMO1 [2]	P12-Ichikawa [3]	SEM cells [1]
HPLM + 10% dialyzed FBS	393	458	434
RPMI 5 mM glucose + 10% FBS	431	470	465
RPMI 5 mM glucose + 10% dialyzed FBS	399	432	428

COC1=C(OCCCN2CCOCC2)C=C3N=CC=C(OC4=CC=C(C=C4F)\C5=C\N=C(\NC6=CC=C(F)C=C6)N(C)C5=O)C3=C1
AUC of viability dose-response curve
Details	NOMO1 [2]	P12-Ichikawa [3]	SEM cells [1]
HPLM + 10% dialyzed FBS	441	447	282
RPMI 5 mM glucose + 10% FBS	447	448	297
RPMI 5 mM glucose + 10% dialyzed FBS	429	445	258

cell viability [%], SEM cells [4]
Details	HPLM + 10% dialyzed FBS	RPMI 5 mM glucose + 10% FBS	RPMI 5 mM glucose + 10% dialyzed FBS
0.000781 µM	110	103	110
0.00234 µM	112	108	116
0.00702 µM	110	113	103
0.0211 µM	91.7	81.2	77.9
0.0632 µM	68.9	79.4	73.8
0.19 µM	57.7	65.2	52
0.569 µM	59	46.7	45.9
1.71 µM	52.4	56.5	44
5.12 µM	47.8	52.6	43
15.4 µM	40.7	37.6	34.8
46.1 µM	5.64	1.97	3.15

Cc1ccc2c(=O)c3cccc(CC(=O)O)c3oc2c1C
AUC of viability dose-response curve
Details	NOMO1 [2]	P12-Ichikawa [3]	SEM cells [1]
HPLM + 10% dialyzed FBS	435	471	447
RPMI 5 mM glucose + 10% FBS	471	464	440
RPMI 5 mM glucose + 10% dialyzed FBS	429	460	449

CC(C)CN(C[C@@H](O)[C@H](Cc1ccccc1)NC(=O)O[C@H]1CCOC1)[S+](=O)([O-])c1ccc(N)cc1
AUC of viability dose-response curve
Details	NOMO1 [2]	P12-Ichikawa [3]	SEM cells [1]
HPLM + 10% dialyzed FBS	440	396	410
RPMI 5 mM glucose + 10% FBS	453	382	369
RPMI 5 mM glucose + 10% dialyzed FBS	443	362	365

Nc1ncnc2c1c(-c1cccc(OCc3ccccc3)c1)cn2[C@H]1C[C@@H](CN2CCC2)C1
AUC of viability dose-response curve
Details	NOMO1 [2]	P12-Ichikawa [3]	SEM cells [1]
HPLM + 10% dialyzed FBS	433	458	437
RPMI 5 mM glucose + 10% FBS	459	465	456
RPMI 5 mM glucose + 10% dialyzed FBS	450	467	436

cell viability [%], SEM cells [4]
Details	HPLM + 10% dialyzed FBS	RPMI 5 mM glucose + 10% FBS
0.000781 µM	103	110
0.00234 µM	125	115
0.00702 µM	119	121
0.0211 µM	123	107
0.0632 µM	117	112
0.19 µM	126	107
0.569 µM	109	123
1.71 µM	114	117
5.12 µM	96.4	111
15.4 µM	75.3	91.3
46.1 µM	62.9	64.4

CCCCCNC(=O)N1CCC(CN(Cc2ccc(Cl)cc2)Cc2ccc([N+](=O)[O-])s2)C1 (configuration not stated)
Details	AUC of viability dose-response curve	cell viability [%]
NOMO1 [5], 0.000781 µM	–	123
NOMO1 [5], 0.00234 µM	–	111
NOMO1 [5], 0.00702 µM	–	104
NOMO1 [5], 0.0211 µM	–	102
NOMO1 [5], 0.0632 µM	–	107
NOMO1 [5], 0.19 µM	–	120
NOMO1 [5], 0.569 µM	–	108
NOMO1 [5], 1.71 µM	–	112
NOMO1 [5], 5.12 µM	–	110
NOMO1 [5], 15.4 µM	–	94.5
NOMO1 [5], 46.1 µM	–	94.8
P12-Ichikawa [3], HPLM + 10% dialyzed FBS	443	–
P12-Ichikawa [3], RPMI 5 mM glucose + 10% FBS	446	–
P12-Ichikawa [3], RPMI 5 mM glucose + 10% dialyzed FBS	445	–
SEM cells [1], HPLM + 10% dialyzed FBS	461	–
SEM cells [1], RPMI 5 mM glucose + 10% FBS	447	–
SEM cells [1], RPMI 5 mM glucose + 10% dialyzed FBS	456	–

cell viability [%]
Details	HPLM + 10% dialyzed FBS	RPMI 5 mM glucose + 10% FBS	RPMI 5 mM glucose + 10% dialyzed FBS
P12-Ichikawa [6], 0.000781 µM	113	108	123
P12-Ichikawa [6], 0.00234 µM	127	116	104
P12-Ichikawa [6], 0.00702 µM	119	113	104
P12-Ichikawa [6], 0.0211 µM	121	107	117
P12-Ichikawa [6], 0.0632 µM	111	114	111
P12-Ichikawa [6], 0.19 µM	114	100	113
P12-Ichikawa [6], 0.569 µM	111	107	109
P12-Ichikawa [6], 1.71 µM	110	97	95.2
P12-Ichikawa [6], 5.12 µM	103	103	101
P12-Ichikawa [6], 15.4 µM	96.9	90.4	94.3
P12-Ichikawa [6], 46.1 µM	85.6	74.2	78.9
SEM cells [4], 0.000781 µM	–	113	113
SEM cells [4], 0.00234 µM	–	118	134
SEM cells [4], 0.00702 µM	–	129	108
SEM cells [4], 0.0211 µM	–	116	107
SEM cells [4], 0.0632 µM	–	134	114
SEM cells [4], 0.19 µM	–	120	128
SEM cells [4], 0.569 µM	–	122	121
SEM cells [4], 1.71 µM	–	126	127
SEM cells [4], 5.12 µM	–	121	132
SEM cells [4], 15.4 µM	–	79.5	102
SEM cells [4], 46.1 µM	–	56.1	48.2
